From patent publication US11147272B2, “Pyridone compounds and agricultural and horticultural fungicides comprising the same as active ingredients” (MITSUI CHEMICALS AGRO, INC., priority 2017, dated 2021) come the findings set out here.

In one experiment the test system is Magnaporthe grisea. The experiment can be described thus: whole plant or invertebrate. It is filed as in vivo. To be noted: Blast on rice; control value class.
The next experiment concerns Alternaia brassicicola. The experiment is described as follows: Test Example C: Alternaria sooty spot on cabbage. It is filed as in vivo. To be noted: Alternaria sooty spot on cabbage; control value class. An excerpt:
Seeds of a test plant (cabbage variety: Shikidori) were planted and cultivated until the cotyledons extended.
<Control Value> Control value=100{1−(n/3)}

A further experiment concerns Puccinia recondita. The experiment can be described thus: Test Example E: Brown rust on wheat. The conditions noted are these: Brown rust on wheat; control value class. It is filed as in vivo.
The test system of the next experiment is Phytophthora infestans. The experiment is described as follows: whole plant or invertebrate. It is filed as in vivo. To be noted: Late blight on tomato; control value class.
The subject of a further experiment is Botrytis cinerea. The experiment can be described thus: Test Example B: Gray mold on tomato. The conditions noted are these: Gray mold on tomato; control value class.
A further experiment deals with Plasmopara viticola. The experiment can be described thus: Test Example G: Downy mildew on vine. The conditions noted are these: Downy mildew on vine; 250 ppm spray, 7 to 10 days after inoculation.
The subject of experiment [1] is Colletotrichum orbiculare. The experiment can be described thus: Test Example H: Anthracnose on cucumber. To be noted: Anthracnose on cucumber; 250 ppm spray, 6 to 10 days after inoculation.
For experiment [2], the system named is Blumeria graminis f. sp. hordei. The experiment can be described thus: Test Example D: Powdery mildew on barley. The conditions noted are these: Powdery mildew on barley; control value class.

For the compound `CCCC1=C(c2ccc(F)cc2Br)N(CC)C(=O)CC1` [compound 359], the “Test A control value” in the experiment on Magnaporthe grisea is “L (50% or less control value)”. Moreover, in the experiment on Alternaia brassicicola, the “Test C control value” is recorded as “L (50% or less control value)”. For the same compound, the “Test E control value” in the experiment with Puccinia recondita was “L (50% or less control value)”. Moreover, the “Test F control value” with Phytophthora infestans is “L (50% or less control value)”. Also, the “Test B control value” in the experiment on Botrytis cinerea is reported as “L (50% or less control value)”. Besides, in the experiment on Plasmopara viticola, the “Test G control value” is on record as “L (50% or less control value)”. In experiment [1], the “Test H control value” was “L (50% or less control value)”. The “Test D control value” in experiment [2] was “H (more than 50% control value)”.

As to `CCc1ccc(=O)n(C)c1-c1ccc(F)cc1C` [compound 360], the “Test A control value” in the experiment on Magnaporthe grisea was “L (50% or less control value)”. Further, in the experiment with Alternaia brassicicola, the “Test C control value” is on record as “L (50% or less control value)”. Also, in the experiment on Puccinia recondita, the “Test E control value” is recorded as “L (50% or less control value)”. The “Test F control value” in the experiment with Phytophthora infestans was “H (more than 50% control value)”. In addition, in the experiment on Botrytis cinerea, the “Test B control value” is given as “L (50% or less control value)”. Besides, the “Test G control value” with Plasmopara viticola is listed as “L (50% or less control value)”. Besides, in experiment [1], the “Test H control value” is given as “L (50% or less control value)”. Besides, the “Test D control value” in experiment [2] was “L (50% or less control value)”.

In the case of `CCCc1ccc(=O)n(CC)c1-c1ccc(F)cc1Br` [compound 361], in the experiment with Magnaporthe grisea, the “Test A control value” is given as “H (more than 50% control value)”. Besides, the “Test C control value” in the experiment with Alternaia brassicicola was “L (50% or less control value)”. For the same compound, the “Test E control value” in the experiment with Puccinia recondita is “H (more than 50% control value)”. For the same compound, the “Test F control value” in the experiment with Phytophthora infestans was “L (50% or less control value)”. In addition, the “Test B control value” with Botrytis cinerea is on record as “H (more than 50% control value)”. Moreover, the “Test G control value” with Plasmopara viticola was “L (50% or less control value)”. Moreover, the “Test H control value” in experiment [1] was “L (50% or less control value)”. For the same compound, the “Test D control value” in experiment [2] is given as “H (more than 50% control value)”.

As for `CCc1cc(Cl)c(=O)n(C)c1-c1ccc(F)cc1C` [compound 362], the “Test A control value” in the experiment with Magnaporthe grisea is listed as “H (more than 50% control value)”. Moreover, the “Test C control value” in the experiment with Alternaia brassicicola was “L (50% or less control value)”. Moreover, the “Test E control value” in the experiment with Puccinia recondita is on record as “H (more than 50% control value)”. In the experiment with Phytophthora infestans, the “Test F control value” is recorded as “L (50% or less control value)”. In addition, the “Test B control value” with Botrytis cinerea is “H (more than 50% control value)”. Further, in the experiment with Plasmopara viticola, the “Test G control value” is given as “L (50% or less control value)”. Further, the “Test H control value” in experiment [1] was “L (50% or less control value)”. In addition, the “Test D control value” in experiment [2] is listed as “H (more than 50% control value)”.

For the compound `CCc1cc(Br)c(=O)n(C)c1-c1ccc(F)cc1C` [compound 363], the “Test A control value” in the experiment with Magnaporthe grisea is given as “H (more than 50% control value)”. Moreover, in the experiment on Alternaia brassicicola, the “Test C control value” is reported as “L (50% or less control value)”. Also, the “Test E control value” with Puccinia recondita is “H (more than 50% control value)”. Also, the “Test F control value” with Phytophthora infestans is “L (50% or less control value)”. Also, in the experiment with Botrytis cinerea, the “Test B control value” was “H (more than 50% control value)”. Besides, in the experiment on Plasmopara viticola, the “Test G control value” is “H (more than 50% control value)”. Also, the “Test H control value” in experiment [1] is recorded as “L (50% or less control value)”. Moreover, in experiment [2], the “Test D control value” is recorded as “L (50% or less control value)”.

Consider `CCn1c(-c2c(F)cc(F)cc2F)c(C=O)cc(Br)c1=O` [compound 364], for which the “Test A control value” with Magnaporthe grisea is given as “L (50% or less control value)”. Moreover, the “Test C control value” in the experiment with Alternaia brassicicola is given as “H (more than 50% control value)”. In addition, the “Test E control value” in the experiment on Puccinia recondita is recorded as “H (more than 50% control value)”. In addition, the “Test F control value” in the experiment on Phytophthora infestans is recorded as “L (50% or less control value)”. Further, the “Test B control value” in the experiment with Botrytis cinerea is reported as “H (more than 50% control value)”. The “Test G control value” in the experiment with Plasmopara viticola is recorded as “H (more than 50% control value)”. Moreover, the “Test H control value” in experiment [1] is “L (50% or less control value)”. The “Test D control value” in experiment [2] is on record as “L (50% or less control value)”.

As to `CCn1c(-c2c(F)cc(F)cc2F)c(C(O)C(C)C)cc(Br)c1=O` (stereo not shown) [compound 365], in the experiment on Magnaporthe grisea, the “Test A control value” is on record as “H (more than 50% control value)”. Besides, the “Test C control value” in the experiment on Alternaia brassicicola is reported as “H (more than 50% control value)”. Also, the “Test E control value” in the experiment on Puccinia recondita is “H (more than 50% control value)”. Moreover, the “Test F control value” in the experiment with Phytophthora infestans was “L (50% or less control value)”. For the same compound, the “Test B control value” with Botrytis cinerea is on record as “H (more than 50% control value)”. For the same compound, the “Test G control value” with Plasmopara viticola is given as “H (more than 50% control value)”. The “Test H control value” in experiment [1] was “H (more than 50% control value)”. For the same compound, in experiment [2], the “Test D control value” is recorded as “H (more than 50% control value)”.

For the compound `CCn1c(-c2c(F)cc(F)cc2F)c(C(=O)C(C)C)cc(Br)c1=O` [compound 366], the “Test A control value” with Magnaporthe grisea is listed as “H (more than 50% control value)”. Further, in the experiment with Alternaia brassicicola, the “Test C control value” is listed as “H (more than 50% control value)”. Also, the “Test E control value” in the experiment with Puccinia recondita is reported as “H (more than 50% control value)”. The “Test F control value” with Phytophthora infestans is given as “L (50% or less control value)”. Also, the “Test B control value” with Botrytis cinerea is “H (more than 50% control value)”. Moreover, in the experiment on Plasmopara viticola, the “Test G control value” is “H (more than 50% control value)”. Also, the “Test H control value” in experiment [1] is “H (more than 50% control value)”. Also, the “Test D control value” in experiment [2] was “H (more than 50% control value)”.

As to `CCc1ccc(=O)n(C)c1-c1ccc(OC)cc1C` [compound 367], the “Test A control value” in the experiment with Magnaporthe grisea is reported as “L (50% or less control value)”. In the experiment with Alternaia brassicicola, the “Test C control value” is on record as “L (50% or less control value)”. Also, the “Test E control value” in the experiment with Puccinia recondita is listed as “L (50% or less control value)”. Also, the “Test F control value” in the experiment with Phytophthora infestans is given as “L (50% or less control value)”. For the same compound, in the experiment with Botrytis cinerea, the “Test B control value” is “L (50% or less control value)”. The “Test G control value” in the experiment with Plasmopara viticola was “L (50% or less control value)”. Moreover, the “Test H control value” in experiment [1] is on record as “H (more than 50% control value)”. Further, the “Test D control value” in experiment [2] is listed as “H (more than 50% control value)”.

As for `CCCc1cc(Cl)c(=O)n(CC)c1-c1ccc(F)cc1Br` [compound 368], the “Test A control value” in the experiment on Magnaporthe grisea is given as “H (more than 50% control value)”. The “Test C control value” with Alternaia brassicicola is “H (more than 50% control value)”. Moreover, in the experiment on Puccinia recondita, the “Test E control value” is listed as “H (more than 50% control value)”. The “Test F control value” in the experiment on Phytophthora infestans is given as “H (more than 50% control value)”. The “Test B control value” with Botrytis cinerea was “H (more than 50% control value)”. Further, the “Test G control value” in the experiment with Plasmopara viticola is reported as “H (more than 50% control value)”. Besides, the “Test H control value” in experiment [1] was “H (more than 50% control value)”. Also, the “Test D control value” in experiment [2] is “H (more than 50% control value)”.

As to `CCCc1cc(Br)c(=O)n(CC)c1-c1ccc(F)cc1Br` [compound 369], the “Test A control value” in the experiment with Magnaporthe grisea is “H (more than 50% control value)”. Also, the “Test C control value” in the experiment on Alternaia brassicicola was “H (more than 50% control value)”. In addition, the “Test E control value” in the experiment with Puccinia recondita was “H (more than 50% control value)”. In the experiment on Phytophthora infestans, the “Test F control value” is “H (more than 50% control value)”. For the same compound, the “Test B control value” in the experiment on Botrytis cinerea is given as “H (more than 50% control value)”. Besides, the “Test G control value” in the experiment on Plasmopara viticola is “H (more than 50% control value)”. In addition, the “Test H control value” in experiment [1] is recorded as “H (more than 50% control value)”. The “Test D control value” in experiment [2] is listed as “H (more than 50% control value)”.

On to `CCCc1ccc(=O)n(CC)c1-c1ccc(OC)cc1Br` [compound 370], for which the “Test A control value” in the experiment with Magnaporthe grisea is recorded as “L (50% or less control value)”. In addition, the “Test C control value” in the experiment on Alternaia brassicicola is “H (more than 50% control value)”. In addition, in the experiment on Puccinia recondita, the “Test E control value” was “H (more than 50% control value)”. In the experiment with Phytophthora infestans, the “Test F control value” is “H (more than 50% control value)”. Further, in the experiment on Botrytis cinerea, the “Test B control value” is recorded as “H (more than 50% control value)”. In addition, in the experiment on Plasmopara viticola, the “Test G control value” is “H (more than 50% control value)”. Moreover, the “Test H control value” in experiment [1] is given as “H (more than 50% control value)”. Moreover, the “Test D control value” in experiment [2] is “H (more than 50% control value)”.

For the compound `CCCC1=C(c2c(F)cc(F)cc2F)N(CC)C(=O)CC1` [compound 371], in the experiment on Magnaporthe grisea, the “Test A control value” is listed as “L (50% or less control value)”. In addition, the “Test C control value” in the experiment with Alternaia brassicicola is listed as “L (50% or less control value)”. Also, the “Test E control value” in the experiment on Puccinia recondita is reported as “L (50% or less control value)”. The “Test F control value” with Phytophthora infestans was “L (50% or less control value)”. The “Test B control value” in the experiment on Botrytis cinerea was “H (more than 50% control value)”. Also, the “Test G control value” in the experiment on Plasmopara viticola is on record as “L (50% or less control value)”. Also, in experiment [1], the “Test H control value” is reported as “L (50% or less control value)”. Moreover, the “Test D control value” in experiment [2] was “L (50% or less control value)”.

For `CCCc1ccc(=O)n(CC)c1-c1c(F)cc(F)cc1F` [compound 372], the “Test A control value” with Magnaporthe grisea is on record as “L (50% or less control value)”. Moreover, the “Test C control value” in the experiment with Alternaia brassicicola was “H (more than 50% control value)”. In addition, in the experiment on Puccinia recondita, the “Test E control value” is on record as “H (more than 50% control value)”. Also, in the experiment on Phytophthora infestans, the “Test F control value” is given as “L (50% or less control value)”. Further, the “Test B control value” in the experiment on Botrytis cinerea was “H (more than 50% control value)”. For the same compound, in the experiment on Plasmopara viticola, the “Test G control value” is “H (more than 50% control value)”. The “Test H control value” in experiment [1] is “H (more than 50% control value)”. Besides, in experiment [2], the “Test D control value” is reported as “H (more than 50% control value)”.
